Data from patent publication US20220387276A1, “Composition Comprising Oils, Free Fatty Acids And Squalene” (Clariant International Ltd., priority 2021, published 2022).

Format: physicochemical
Procedure: The oxidative stability at 90° C. was determined according to DIN EN ISO 6886 for the blend of Example 1 and compared with the oxidative stability of squalene.

In the case of `CC(C)=CCC/C(C)=C/CC/C(C)=C/CC/C=C(\C)CC/C=C(\C)CCC=C(C)C` [squalene], the “Induction time (oxidative stability)” value is reported as 4.84 h.
